Laboratory results published in patent US20070042339A1, “Preservation of biomaterials with transported preservation agents” (priority 2003, published 2007).
Read-outs that look alike come from different tables or passages of the source.

Legend:
hepatocytes [1] = type: cell-based; conditions: rat, 60 min, 200 mM
Method: HTS without sugar supplement was used for control samples. […] Following storage, samples were rapidly thawed in 37° C. H2O for 2 min with gentle agitation.

[2] = test system: lymphocytes, fibroblasts and hepatocytes; experiment: MTT assay of metabolic activity after glucose loading (Example 1); type: cell-based, murine; rat; conditions: 1 hr at 37° C.
Method: However, it was considered to be possible that high accumulation of glucose compounds change metabolic activity of the cells. Therefore, metabolic activity after sugar loading was measured with the MTT assay. MTT assay is a colorimetric assay based on the activity of mitochondrial dehydrogenase activity. […] Cells were seeded on 96-well culture plates with 100 μL defined medium supplemented with various glucose compounds according to the experimental design for 1 hr at 37° C. At the end of the treatment period, 10 μL of MT solution (5 mg/mL) were added and incubated for 2 hrs at 37° C. At this time, 100 μL of detergent solution were added to the wells and after 24 hrs of incubation at 25° C., and the absorption value at 570 nm was measured in a microtiter reader.

[3] = test system: murine B lymphocytes, murine fibroblasts, and rat primary hepatocytes; experiment: Cryopreservation with non-metabolizable glucose compounds, post-thaw trypan blue viability (Example 1); type: cell-based; conditions: 0.2 M loading 60 min
Method: At first, these compounds were tested on cryopreservation, which is most common protocol for preservation of biomaterials. Glucose compounds are thought to prevent damaging effects of protein and lipid-membranes during storage. In addition, glucose compounds have a high glass transition temperature and cause the formation of stable glasses during storage. Cells were incubated with glucose-free DMEM or glucose-free DMEM with 0.2 M 2DG, or 0.2 M 3OMG for 60 min at 37° C. […] Samples were stored for up to 14 days. Following storage, samples were rapidly thawed in 37° C. H2O for 80 sec with gentle agitation. […] Samples were then centrifuged, supernatant decanted, and cells were resuspended in culture medium.

hepatocytes [4] = type: cell-based, rat
Description: The sandwich culture is a long-term culture technique that results in stable and differentiated hepatocytes. We evaluated albumin synthesis, urea production, and cytochrome P450 (CYP) activity of frozen-thawed hepatocytes as markers of synthetic, metabolic, and detoxification abilities of hepatocytes. Albumin production of 3OMG-loaded and cryopreserved hepatocytes stabilized following 7 days in culture (FIG. 11A). Daily average of albumin production (day 7-13) from 3OMG-loaded hepatocytes was approximately 60% of non-frozen control (1.29±0.19 μg and 2.14±0.26 μg, respectively) with statistically significant difference (p=0.014). […] The CYP activity was measured on day 3 and 7 after thawing.

[5] = test system: lymphocytes, fibroblasts and hepatocytes; type: cell-based, murine; rat
Method: The conventional permeable cryoprotectants such as DMSO and glycerol benefit cells for preservation, but they are known to be toxic to the cells at the same time. […] The toxicity of various glucose compounds, D-glucose and DMSO was examined after loading. Cells were incubated with glucose-free DMEM supplemented with 0.2 M 3OMG, with 0.2 M 2DG or 1.4 M DMSO for 60 min at 37° C. After loading, calcein and ethidium homodimer were added to cell suspensions to assess viability. Cells were run through Beckton-Dickinson FACSCalibur flowcytometer to take emission reading at 530 nm and 630 nm of 5000 particles. High green and low red fluorescence (calcein positive) were scored as live, whereas high red and low green (ethidium positive) were scored dead.

Question: How did the “post-thaw viability, percent of non-frozen samples” value (hepatocytes [1]) turn out when `OC[C@H]1OC(O)C[C@@H](O)[C@@H]1O` (mixture of isomers) [2DG, 2-deoxy-D-glucose] was run?
Answer: The value was 15%.

Question: And the “metabolic activity (MTT) after loading, lymphocytes and fibroblasts” value ([2]; lymphocytes and fibroblasts)?
Answer: The value was “significant loss of metabolic activity”.

Question: What about the “metabolic activity (MTT) after loading, hepatocytes” value ([2]; primary isolated hepatocytes) of the same molecule?
Answer: The value was “not down-regulated”.

Question: What about the “viability after cryopreservation compared to non-glucose control” value [3] of the same molecule?
Answer: Its value is “significantly high viability”.

Question: What does the source list for `O=C[C@H](O)[C@@H](O)[C@H](O)[C@H](O)CO` [D-glucose]?
Answer: post-thaw viability, percent of non-frozen samples (hepatocytes [1]): < 10%; hepatospecific functions (albumin, urea, CYP) in long-term culture after cryopreservation (hepatocytes [4]): completely lost these functions in 5 days

Question: For `C[S+](C)[O-]` [DMSO, dimethylsulfoxide], which “toxicity to the cells (percentage of dead cells after incubation)” value [5] is on record?
Answer: Its value is “significant toxicity”.

Question: `OC[C@H]1O[C@@](CO)(O[C@H]2O[C@H](CO)[C@@H](O)[C@H](O)[C@H]2O)[C@@H](O)[C@@H]1O` [sucrose] was tested. Which “hepatospecific functions (albumin, urea, CYP) in long-term culture after cryopreservation” value (hepatocytes [4]; collagen sandwich culture, 14 days) did it give?
Answer: Its value is “completely lost these functions in 5 days”.
